Assay results taken from patent US20080096909A1, “APOMORPHINE INHIBITORS OF AMYLOID-BETA (ABETA) FIBRIL FORMATION AND THEIR USE IN AMYLOIDOSIS BASED DISEASE” (priority 2001, published 2008).
Values joined by “and” are separate entries in the source; they are usually repeats but may differ in a detail not shown here. Equal values may be shown once. “Also recorded” adds a separate entry of the source.

What was measured:
[1] = target: T1, monomeric Aβ (Homo sapiens, UniProt P05067); assay: Sedimentation equilibrium of unsedimented monomeric species, monitored at 330 nm; assay type: binding
T1 construct: Amyloid-β (Aβ 1-40) was purchased from California Peptides (Lot # SF104); purchased California Peptides Lot # SF104
T1 sequence (P05067 672-711): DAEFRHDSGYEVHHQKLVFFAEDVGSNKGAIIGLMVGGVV

[2] = target: T2, Aβ 1-40 (Homo sapiens, UniProt P05067); assay: Electron microscopy of Aβ aggregates in the presence of inhibitor; assay type: biochemical; parameters: Amyloid-β (Aβ 1-40) was purchased from California Peptides (Lot # SF104); purchased California Peptides Lot # SF104
T2 sequence (P05067 672-711): as above
Description: Electron Microscopy. Electron microscopy was used to follow the changes in size and structural morphology of Aβ aggregates in the presence and absence of inhibitor at 37° C. as a function of time. EM samples were prepared by placing 5 μL of the Aβ solution on a carbon-coated grid and allowing the solution to stand for 2 min before removing excess solution. The grid was then washed once with distilled water and once with 1% uranyl acetate before staining the sample with fresh 1% uranyl acetate for another 2 min. The samples were then studied in a Phillips CM-100 electron microscope. The grids were thoroughly examined to get an overall statistical evaluation of the structures present in the sample. All electron micrographs were taken at 100 kV.

[3] = target: T2, Aβ 1-40; assay: Congo red binding studies; assay type: biochemical; parameters: Amyloid-β (Aβ 1-40) was purchased from California Peptides (Lot # SF104); purchased California Peptides Lot # SF104; conditions: Aβ solutions containing apomorphine, 3 days at 37° C.
[4] = target: T2, Aβ 1-40; assay: Sedimentation velocity of Aβ quaternary structures in the presence of inhibitors; assay type: biochemical; parameters: Amyloid-β (Aβ 1-40) was purchased from California Peptides (Lot # SF104); purchased California Peptides Lot # SF104; conditions: for Average sedimentation coefficients of two populations of oligomeric species: apomorphine 50 μM
Description: Probing the Mechanism of Amyloid Fibril Formation Inhibition using Sedimentation Velocity Experiments. To probe the mechanism by which apomorphine and its structural analogues inhibit Aβ fibril formation, sedimentation velocity was used to determine the distribution and molecular size of quaternary structures of Aβ in the presence and absence of inhibitors. Aβ samples (100 μM) in a pH 7.4 buffer (50 mM Tris-HCl, 150 mM NaCl) were incubated at 37° C. for 1-10 days in the presence and absence of inhibitors, then transferred to 25° C. for 1-3 hours before the sedimentation experiments were carried out at 20° C. The sedimentation properties of Aβ 1-40 in the absence and presence of inhibitors were obtained from data collected on a temperature controlled Beckman XL-1 using 400-420 μL of peptide solutions and data were recorded at rotor speeds of 3,000-30,000 rpm in continuous mode with a step size of 0.005 cm. The sedimentation velocity absorbance profiles were then analyzed using the time derivative (dc/dt) analysis program, which was provided by J. Philo, to obtain the sedimentation coefficient distribution g(*s) for all the quaternary structures in solution as described previously (37, 38).
Fitting of the g(*s) profiles allows for the determination of the sedimentation coefficient (peak position, with a unit of Svedberg, 1 S=10^−13 s) and the diffusion coefficient (from the peak width, with a unit of Fick, 1 F=[…]). This method has the advantage of allowing for the calculation of the molecular weight of the sedimenting species using equation II since s and D can be obtained from the fitting analysis. [formula]
In the cases where the diffusion coefficient cannot be determined accurately, the molecular weight of a spherical protein can still be estimated by combining the Svedberg equation and Stokes equation for the frictional coefficient to obtain equation III which utilizes the estimated sedimentation coefficient: [formula]
Sedimentation velocity was also used to determine the amount of soluble Aβ and Aβ monomer in solution after sedimentation of Aβ aggregates. […] The percent of monomeric species in solution was calculated using equation IV at 50,000 rpm and after complete sedimentation of Aβ high MW oligomeric species. Sedimentation equilibrium studies of the unsedimented species were carried out to determine whether a monomer, dimer or a mixture was present in solution. % of unsedimented Aβ=1−(Absorbance(290 nm, 3000 rpm)−Absorbance(290 nm, 20,000-30,000 rpm))×100 (IV)

[5] = target: T2, Aβ 1-40; assay: Thioflavin T (ThT) fluorescence assay for fibril formation; assay type: biochemical; parameters: Amyloid-β (Aβ 1-40) was purchased from California Peptides (Lot # SF104); purchased California Peptides Lot # SF104
Description: Preparation of Stock Peptide Solutions for Fibrillization Studies. Stock solutions of the inhibitors were prepared by dissolving the compounds at a concentration of 5-7 mM in water or in 1-1.5% DMSO solutions (for compounds with reduced solubility). Amyloid-β (Aβ 1-40) was purchased from California Peptides (Lot # SF104). Aβ 1-40 stock solutions were prepared by dissolving purified and lyophilized peptide in cold double distilled water to yield stock solutions at a concentration of 2 mg/mL. The stock solutions were used within 10-30 minutes of dissolution. Samples for fibril formation assay were prepared by diluting the appropriate amount of Aβ stock with pH 7.4 Tris-HCl buffer (50 mM Tris, 150 mM NaCl) to afford a final peptide concentration of 100 μM. […] Analytical ultracentrifugation, and electron microscopy were periodically used to ensure that we start our experiments with a hydrodynamically defined Aβ monomer, and the absence of any preformed fibrils in solution.
Thioflavin T (ThT) Fluorescence Assay for Fibril Formation. Thioflavin T was purchased from Aldrich (70% purity) and was recrystallized from benzene/ethanol (1:1) to afford yellow crystals (36). Thioflavin T binding assays were performed by addition of 50 μL of 100 μM Aβ solutions, which were incubated at 37° C. in the absence and presence of inhibitors, to 450 μL solution of 10 μM Thioflavin T in phosphate buffer (10 mM phosphate, 100 mM KCl). The solutions were mixed and fluorescence measurements were recorded in Biosystems model spectrofluorimeter at 25° C. using a 1 cm path length quartz cell. An excitation slit width of 4 nm and an emission slit width of 8 nm were employed. The excitation wavelength was set to 450 nm and emission monitored from 460-630 nm. The relative fluorescence at 482 nm was plotted for each sample, and was used as a measure of the amount of fibrillar aggregates in solution.

[6] = target: T2, Aβ 1-40; assay: Visible sedimentable aggregates in Aβ 1-40 fibrillization samples; parameters: Amyloid-β (Aβ 1-40) was purchased from California Peptides (Lot # SF104); purchased California Peptides Lot # SF104; conditions: Aβ 1-40 100 μM, apomorphine 100 μM, 37° C., 1-3 days

Molecular weight from single species fit of sedimentation equilibrium ([1]; remaining monomeric species, monitored at 330 nm): 4,430 g/mol
Binding to monomeric Aβ ([1]; sedimentation equilibrium at 330 nm): bound to monomeric Aβ
Nonfibrillar assemblies as share of species in solution ([2]; Aβ 1-40 100 μM, apomorphine 50 μM, 3-6 days at 37° C.): 70-85%
Protofibril assembly into fibrils when compound is added to pre-incubated Aβ (EM and sedimentation velocity) ([2]; Aβ pre-incubated 18-20 hr at 37° C., then three to nine days with compound): exhibited similar behavior
Amount of nonfibrillar assemblies (protofibrils) formed by Aβ alone relative to that obtained in the presence of compound ([4]; 20 hour incubation): ~30%
Average sedimentation coefficients of two populations of oligomeric species ([4]; Aβ 100 μM): 35 S and 56 S
Average sedimentation coefficients of two populations of oligomeric species ([4]; Aβ 100 μM, listed as apomorhine): 35 S and 56 S
Average sedimentation coefficient of Aβ-apomorphine complex(s) ([4]; Aβ 100 μM, apomorphine 100 μM, 3 days, 30,000 rpm): 50 S
Sedimentation of Aβ 1-40 at 3,000 rpm (fibrils) ([4]; apomorphine at equimolar ratio to Aβ 1-40): no sedimentation of Aβ 1-40 was observed
Increase in amount of soluble protofibrils ([4]; incubation 17-24 h at 37° C., in the presence of apomorphine): 60%
Sedimentation coefficient after addition of apomorphine ([4]; incubation 17-24 h at 37° C., Aβ alone 20 S): 30 S
Thioflavin T signal after longer incubation ([5]; longer incubation at 37° C., some long fibrils formed): did not exhibit any changes
Thioflavin T signal with sodium metabisulphite added ([5]; stock solutions containing 1% (v/v) sodium metabisulphite, 37° C., pH 7.4, 3 days): restoration of the ThT signal
SMILES: CN1CCc2cccc3c2C1Cc1ccc(O)c(O)c1-3 (single isomer, unassigned; (-)) [apomorphine, (−)-10,11-dihydroxyaporphine]
Species seen by electron microscopy ([2]; Aβ 1-40 100 μM, apomorphine 50 μM): both long unbranched fibrils and short nonfibrillar assemblies were observed
Species seen by electron microscopy ([2]; Aβ 1-40 100 μM, apomorphine 100 μM): accumulation of predominantly soluble, nonfibrillar assemblies
Species by sedimentation velocity and EM ([2]; Aβ 1-40 100 μM, apomorphine 200 μM, 37° C., 2-6 days): stabilization of soluble oligomeric species
Fibril formation at apomorphine concentrations below 50 μM ([2]; Aβ 1-40 100 μM, apomorphine <50 μM, 3-9 days at 37° C.): significant fibrils were formed; also recorded: not effective as an inhibitor
Inhibition of Aβ fibril formation by EM, aged or freshly prepared stock solutions ([2]; three to four days at 37° C.): effective inhibition of Aβ fibril formation
Congo red maximal absorbance and red-shifted maximum [3]: no increase in the maximal absorbance and red-shifted maximum
Thioflavin T fluorescence at 482 nm (amount of fibrils) ([5]; Aβ 1-40 100 μM incubated with compound, pH 7.4, 37° C., 3 days): did not exhibit this typical fluorescence; also recorded: did not affect the ThT fluorescence spectra; also recorded: signal near background
Visible sedimentable aggregates [6]: did not show any visible sedimentable aggregates
